From article PMC12400753 (Respiratory Research, 2025)

How the values were obtained:
Type in all cases: cell-based
[1] = target: T1, human LPAR2 (Homo sapiens, UniProt Q9HBW0); assay: LPA-induced calcium mobilization in transiently transfected HEK293T cells; conditions: 3 h preincubation; LPA at EC80 5 µM
T1 construct: host or cells: HEK293T
Protocol: (§1) We had previously assessed selectivity against LPAR2 and 3 [11]. […] Human LPAR1-6 plasmids were each transiently transfected into HEK293T cells and the EC80 (effective concentration producing 80% maximal effect) for LPA activation empirically determined. Selectivity was then tested in a concentration response paradigm using a 3 h preincubation followed by LPA-induced calcium mobilization.
(§2) Plasmids containing human LPAR1-6 were obtained from Origene (Rockville, MD) and maxiprepped at Eton Biosciences (San Diego, CA). Transfection mix was prepared by adding Fugene 6 transfection mix to serum free media and 0.1 µg plasmid. After a 20 m incubation, HEK293T cells (ATCC, Manassas VA) were lifted with Accutase and added to the Fugene mix at a final concentration of 0.5 × 10^4 cells/well. Cells were then plated on black clear bottom 96-well plates and incubated overnight in a 37 °C, 5% CO2 incubator. […] During the last hour of incubation, media was removed and replaced with Fluo-4 NW calcium assay dye prepared as per manufacturer’s recommendations in assay buffer. Agonist plates containing LPA were prepared for individual receptor subytpes using their respective EC80. Calcium mobilization was measured as per manufacturer’s directions on a Flexstation 3 (Molecular Devices, San Jose, CA).

[2] = target: T2, human LPAR4 (Homo sapiens, UniProt Q99677); assay: as above; conditions: 3 h preincubation; LPA at EC80 10 µM
T2 construct: host or cells: HEK293T
Protocol: as §1, §2

[3] = target: T3, human LPAR5 (Homo sapiens, UniProt Q9H1C0); assay: as above; conditions: 3 h preincubation; LPA at EC80 1 µM
T3 construct: host or cells: HEK293T
Protocol: as §1, §2

[4] = target: T4, human LPAR6 (Homo sapiens, UniProt P43657); assay: as above; conditions: 3 h preincubation; LPA at EC80 13 µM
T4 construct: host or cells: HEK293T
T4 sequence (P43657 1-344): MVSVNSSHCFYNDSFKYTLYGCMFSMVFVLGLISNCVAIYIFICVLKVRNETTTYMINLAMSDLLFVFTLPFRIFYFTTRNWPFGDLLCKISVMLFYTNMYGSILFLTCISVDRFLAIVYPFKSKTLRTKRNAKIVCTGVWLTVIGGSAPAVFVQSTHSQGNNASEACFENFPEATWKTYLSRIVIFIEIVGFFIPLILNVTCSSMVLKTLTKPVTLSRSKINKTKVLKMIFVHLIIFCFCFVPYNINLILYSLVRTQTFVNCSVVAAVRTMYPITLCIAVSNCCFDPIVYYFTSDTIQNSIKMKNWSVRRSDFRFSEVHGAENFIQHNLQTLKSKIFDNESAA
Protocol: as §1, §2

[5] = system: human precision cut lung slices from donors with pulmonary fibrosis; assay: Fibrotic marker mRNA (qPCR) in cryopreserved PCLS from donors with pulmonary fibrosis; conditions: PIPE-791, 6 days, 6 donors
Source text: Slices were snap frozen and processed for transcript analysis by quantitative PCR. […] Concurrently, we evaluated two well-established, clinical stage antifibrotic mechanisms in this setting: an αvβ1/6 inhibitor (bexotegrast, PLN-74809) and a PDE4B inhibitor (nerandomilast, BI 1015550).
(§3) Precision cut lung slices were obtained from Anabios (San Diego, CA) and collected in accordance with their ethics policy (https://anabios.com/ethics-statement/). Donor demographics are available in Additional File 1. Slices were thawed as per vendor instructions. Briefly, PCLS were thawed at 37 °C then transferred to media consisting of DMEM/F12, Antibiotic-Antimytotic, and Penicillin-Streptomycin. PCLS were gently rinsed then transferred to a larger dish. A small tissue sample was excised with a scalpel for immunohistochemistry and qPCR characterization. […] Final concentration of DMSO was 0.1%. Media and compound were replaced every two days for a total of 6 days. At the end of the experiment, slices were collected and snap frozen. Quantitative PCR: RNA was extracted using RNEasy columns. RNA was reverse transcribed using qScript XLT per manufacturer’s instructions. Genes of interest were assessed by qPCR using Perfecta SYBR Green on a StepOne Plus Thermocycler (ABI). Parameters were as follows: 95 °C 30 s, then 45 cycles of 95 °C for 5 s and 60 °C for 30 s.

[6] = system: normal, non-fibrotic human PCLS; assay: Fibrotic marker mRNA (qPCR) in normal PCLS; conditions: n=5 donors
Protocol: as §3

T1 sequence (Q9HBW0 whole entry): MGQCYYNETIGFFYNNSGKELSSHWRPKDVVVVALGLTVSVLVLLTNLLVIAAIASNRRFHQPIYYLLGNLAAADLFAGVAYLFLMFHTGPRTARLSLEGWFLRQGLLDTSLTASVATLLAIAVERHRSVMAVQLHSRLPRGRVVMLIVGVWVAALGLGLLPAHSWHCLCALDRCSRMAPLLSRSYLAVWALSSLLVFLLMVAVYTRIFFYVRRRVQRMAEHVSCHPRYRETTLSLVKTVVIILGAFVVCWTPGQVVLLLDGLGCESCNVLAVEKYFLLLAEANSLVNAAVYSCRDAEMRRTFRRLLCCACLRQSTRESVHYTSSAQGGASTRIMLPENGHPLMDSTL
T2 sequence (Q99677 whole entry): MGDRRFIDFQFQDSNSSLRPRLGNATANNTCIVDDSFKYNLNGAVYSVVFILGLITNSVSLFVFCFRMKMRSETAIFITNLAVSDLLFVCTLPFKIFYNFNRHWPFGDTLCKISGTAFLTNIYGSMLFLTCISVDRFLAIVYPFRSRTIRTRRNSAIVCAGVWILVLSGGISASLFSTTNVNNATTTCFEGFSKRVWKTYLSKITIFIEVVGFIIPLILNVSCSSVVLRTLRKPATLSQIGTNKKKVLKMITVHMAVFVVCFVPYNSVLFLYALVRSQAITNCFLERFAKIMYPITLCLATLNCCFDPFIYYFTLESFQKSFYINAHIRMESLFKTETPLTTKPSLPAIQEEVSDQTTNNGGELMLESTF
T3 sequence (Q9H1C0 whole entry): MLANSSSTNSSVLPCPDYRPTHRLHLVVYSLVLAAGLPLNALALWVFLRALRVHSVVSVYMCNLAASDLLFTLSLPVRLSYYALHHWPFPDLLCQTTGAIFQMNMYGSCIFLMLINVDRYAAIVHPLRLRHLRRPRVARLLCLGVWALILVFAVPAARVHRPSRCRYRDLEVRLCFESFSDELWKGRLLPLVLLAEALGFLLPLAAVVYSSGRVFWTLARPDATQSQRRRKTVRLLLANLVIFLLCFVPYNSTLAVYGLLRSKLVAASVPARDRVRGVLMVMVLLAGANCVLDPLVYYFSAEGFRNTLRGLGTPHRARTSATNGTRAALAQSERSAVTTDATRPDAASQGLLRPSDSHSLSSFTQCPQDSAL

Structure (SMILES): COc1ccc(NC(=O)N(c2ccccc2C(C)C)C2CCC(C(=O)O)CC2)c(OC(F)F)n1 (stereo not shown) [PIPE-791]
- IC50 [1]: 463 nM
- IC50 [2]: 607 nM
- IC50 [3]: 114 nM
- IC50 [4]: 805 nM
- COL1A1 mRNA expression vs vehicle [5]: significantly less expression
- COL3A1 mRNA expression vs vehicle [5]: significantly less expression
- LPAR1 mRNA levels vs vehicle [5]: not significantly affected
- SERPINE1 mRNA expression vs vehicle [5]: significantly less expression
- TIMP1 mRNA expression vs vehicle [5]: significantly less expression
- expression of fibrotic marker transcripts (COL1A1, COL3A1, SERPINE1, TIMP1, LPAR1) [6]: did not alter the expression of any of the fibrotic marker transcripts tested
